Measured values: ChEMBL document CHEMBL1157533 (J Med Chem, 2008)
One block for each compound: values may come before it.

Key:
[1] = target: Beta-3 adrenergic receptor (Homo sapiens, UniProt P13945); assay: Agonist activity at human recombinant beta3 adrenergic receptor expressed in CHO cells assessed as cAMP accumulation by enzyme immuno assay; assay type: functional, cell-based
[2] = target: Beta-1 adrenergic receptor (Homo sapiens, UniProt P08588); assay: Agonist activity at human recombinant beta-1 adrenergic receptor expressed in CHO cells assessed as cAMP accumulation by enzyme immuno assay; assay type: functional, cell-based
Beta-1 adrenergic receptor, sequence (P08588 whole entry): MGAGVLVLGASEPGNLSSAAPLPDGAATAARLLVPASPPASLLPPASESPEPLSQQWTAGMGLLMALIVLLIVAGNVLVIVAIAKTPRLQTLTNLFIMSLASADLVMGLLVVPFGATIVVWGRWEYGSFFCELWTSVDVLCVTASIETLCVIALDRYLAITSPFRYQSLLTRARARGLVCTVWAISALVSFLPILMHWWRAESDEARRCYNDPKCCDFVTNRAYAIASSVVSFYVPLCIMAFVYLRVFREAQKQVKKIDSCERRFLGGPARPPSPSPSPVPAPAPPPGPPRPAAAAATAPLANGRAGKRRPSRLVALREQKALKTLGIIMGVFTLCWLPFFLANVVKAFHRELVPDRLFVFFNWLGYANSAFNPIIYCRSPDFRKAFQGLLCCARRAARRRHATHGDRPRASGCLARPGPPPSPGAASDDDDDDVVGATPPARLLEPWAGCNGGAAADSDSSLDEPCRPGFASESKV

[3] = AUC (0 to 24 hrs) in rat at 1.0 mg/kg, po; assay type: ADME, organism-based; design: time < 24 hr, dose 1 mg/kg, route oral; conditions: plasma
[4] = Terminal half life in rat plasma at 1.0 mg/kg, iv; assay type: ADME, organism-based; design: dose 1 mg/kg, route intravenous; conditions: read-out: beta t1/2 (converted)
[5] = Cmax in dog at 0.1 mg/kg, po; assay type: ADME, organism-based, Canis lupus familiaris; design: dose 0.1 mg/kg, route oral; conditions: in vivo
[6] = Bioavailability in rat at 1.0 mg/kg, po; assay type: ADME, organism-based; conditions: in vivo
[7] = Terminal half life in dog at 0.1 mg/kg, iv; assay type: ADME, organism-based, Canis lupus familiaris; design: dose 0.1 mg/kg, route intravenous; conditions: in vivo, read-out: beta t1/2 (converted)
[8] = AUC (0 to 24 hrs) in dog at 0.1 mg/kg, po; assay type: ADME, organism-based, Canis lupus familiaris; design: time < 24 hr, dose 0.1 mg/kg, route oral; conditions: plasma
[9] = Cmax in rat at 1.0 mg/kg, po; assay type: ADME, organism-based; design: dose 1 mg/kg, route oral; conditions: in vivo
[10] = Bioavailability in dog at 0.1 mg/kg, po; assay type: ADME, organism-based, Canis lupus familiaris; conditions: in vivo
[11] = target: Beta-2 adrenergic receptor (Homo sapiens, UniProt P07550); assay: Agonist activity at human recombinant beta2 adrenergic receptor expressed in CHO cells assessed as cAMP accumulation by enzyme immuno assay; assay type: functional, cell-based
Beta-2 adrenergic receptor, sequence (P07550 whole entry): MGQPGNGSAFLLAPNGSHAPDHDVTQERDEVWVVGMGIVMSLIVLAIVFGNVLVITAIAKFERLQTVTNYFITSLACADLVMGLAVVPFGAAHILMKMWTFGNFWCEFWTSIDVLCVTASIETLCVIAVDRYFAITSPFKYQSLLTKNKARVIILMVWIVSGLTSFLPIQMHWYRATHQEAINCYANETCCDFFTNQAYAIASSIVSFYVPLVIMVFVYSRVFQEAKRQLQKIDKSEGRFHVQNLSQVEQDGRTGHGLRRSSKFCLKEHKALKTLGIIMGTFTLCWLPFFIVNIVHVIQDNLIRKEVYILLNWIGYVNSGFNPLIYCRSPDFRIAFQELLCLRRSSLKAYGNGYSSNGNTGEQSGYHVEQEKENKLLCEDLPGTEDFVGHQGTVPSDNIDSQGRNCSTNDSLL

[12] = Total clearance in dog at 0.1 mg/kg, iv; assay type: ADME, organism-based, Canis lupus familiaris; design: dose 0.1 mg/kg, route intravenous; conditions: in vivo
[13] = Total clearance in rat at 1.0 mg/kg, iv; assay type: ADME, organism-based; design: dose 1 mg/kg, route intravenous; conditions: in vivo
[14] = Bioavailability in dog at 0.32 mg/kg, po; assay type: ADME, organism-based, Canis lupus familiaris; conditions: in vivo
[15] = Metabolic stability assessed as intrinsic clearance in human liver microsome in presence of NADPH-generating system; assay type: ADME; conditions: liver microsomes
[16] = Bioavailability in monkey at 0.32 mg/kg, po by cassette assay; assay type: ADME, organism-based, Macaca mulatta; conditions: rhesus monkey, in vivo
Canis familiaris = species on record: Canis familiaris; assay: cells; conditions: Canis lupus familiaris, 3 h
Description: Inhibition of carbachol-induced increase in intravesical pressure in intraduodenally dosed Beagle dog OAB model for 180 mins

[17] = Terminal half life in monkey plasma at 0.32 mg/kg, iv by cassette assay; assay type: ADME, organism-based, Macaca mulatta; design: dose 0.32 mg/kg, route intravenous; conditions: rhesus monkey, read-out: beta t1/2 (converted)
[18] = Cmax in dog at 0.32 mg/kg, po; assay type: ADME, organism-based, Canis lupus familiaris; design: dose 0.32 mg/kg, route oral; conditions: in vivo
[19] = AUC (0 to 24 hrs) in dog at 0.32 mg/kg, po; assay type: ADME, organism-based, Canis lupus familiaris; design: time < 24 hr, dose 0.32 mg/kg, route oral; conditions: plasma
[20] = AUC (0 to 24 hrs) in monkey at 0.32 mg/kg, po by cassette assay; assay type: ADME, organism-based, Macaca mulatta; design: time < 24 hr, dose 0.32 mg/kg, route oral; conditions: rhesus monkey, plasma
[21] = Total clearance in monkey at 0.32 mg/kg, iv by cassette assay; assay type: ADME, organism-based, Macaca mulatta; design: dose 0.32 mg/kg, route intravenous; conditions: rhesus monkey, in vivo
[22] = Metabolic stability assessed as intrinsic clearance in dog liver microsome in presence of NADPH-generating system; assay type: ADME, Canis lupus familiaris; conditions: liver microsomes
[23] = Metabolic stability assessed as intrinsic clearance in rat liver microsome in presence of NADPH-generating system; assay type: ADME; conditions: liver microsomes
[24] = Total clearance in dog at 0.32 mg/kg, iv; assay type: ADME, organism-based, Canis lupus familiaris; design: dose 0.32 mg/kg, route intravenous; conditions: in vivo
[25] = Protein binding in Beagle dog serum; assay type: ADME, cell-free, Canis lupus familiaris; conditions: read-out: PPB (converted)
[26] = Metabolic stability assessed as intrinsic clearance in monkey liver microsome in presence of NADPH-generating system; assay type: ADME, Macaca mulatta; conditions: rhesus monkey, liver microsomes
[27] = Terminal half life in dog plasma at 0.32 mg/kg, iv; assay type: ADME, organism-based, Canis lupus familiaris; design: dose 0.32 mg/kg, route intravenous; conditions: read-out: beta t1/2 (converted)
[28] = target: Beta-3 adrenergic receptor (Canis lupus familiaris, UniProt O02662); assay: Agonist activity at dog recombinant beta3 adrenergic receptor expressed in CHO cells assessed as cAMP accumulation by enzyme immuno assay; assay type: functional, cell-based
Beta-3 adrenergic receptor (Canis lupus familiaris, UniProt O02662), sequence (O02662 whole entry): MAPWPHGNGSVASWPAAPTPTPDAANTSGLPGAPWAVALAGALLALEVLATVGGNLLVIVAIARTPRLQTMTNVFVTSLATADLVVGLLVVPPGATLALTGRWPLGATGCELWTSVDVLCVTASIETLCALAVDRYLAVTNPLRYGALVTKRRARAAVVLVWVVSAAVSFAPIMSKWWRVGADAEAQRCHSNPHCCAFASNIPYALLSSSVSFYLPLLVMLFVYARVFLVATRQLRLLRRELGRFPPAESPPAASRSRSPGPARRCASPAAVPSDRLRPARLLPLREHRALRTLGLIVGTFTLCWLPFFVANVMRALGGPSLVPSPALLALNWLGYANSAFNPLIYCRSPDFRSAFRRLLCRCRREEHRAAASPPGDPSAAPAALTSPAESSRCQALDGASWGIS

[29] = AUC (0 to 24 hrs) in dog at 0.1 mg/kg, po by cassette assay; assay type: ADME, organism-based, Canis lupus familiaris; design: time < 24 hr, dose 0.1 mg/kg, route oral; conditions: plasma
[30] = Total clearance in dog at 0.1 mg/kg, iv by cassette assay; assay type: ADME, organism-based, Canis lupus familiaris; design: dose 0.1 mg/kg, route intravenous; conditions: in vivo
[31] = Terminal half life in dog at 0.1 mg/kg, iv by cassette assay; assay type: ADME, organism-based, Canis lupus familiaris; design: dose 0.1 mg/kg, route intravenous; conditions: in vivo, read-out: beta t1/2 (converted)
[32] = Bioavailability in dog at 0.1 mg/kg, po by cassette assay; assay type: ADME, organism-based, Canis lupus familiaris; conditions: in vivo
[33] = Cmax in dog at 0.1 mg/kg, po by cassette assay; assay type: ADME, organism-based, Canis lupus familiaris; design: dose 0.1 mg/kg, route oral; conditions: in vivo

Beta-3 adrenergic receptor (Homo sapiens, UniProt P13945), sequence (P13945 whole entry): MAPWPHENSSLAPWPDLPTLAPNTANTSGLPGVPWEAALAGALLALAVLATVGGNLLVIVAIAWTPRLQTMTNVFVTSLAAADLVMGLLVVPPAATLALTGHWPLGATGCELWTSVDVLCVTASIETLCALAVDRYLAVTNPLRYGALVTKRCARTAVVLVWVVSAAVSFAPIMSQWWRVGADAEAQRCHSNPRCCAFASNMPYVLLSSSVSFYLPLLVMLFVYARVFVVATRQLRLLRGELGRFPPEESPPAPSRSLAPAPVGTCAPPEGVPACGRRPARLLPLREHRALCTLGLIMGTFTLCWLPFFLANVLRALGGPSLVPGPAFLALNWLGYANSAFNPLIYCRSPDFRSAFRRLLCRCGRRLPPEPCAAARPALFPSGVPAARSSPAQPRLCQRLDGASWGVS

EC50 [1]: 2.4 nM
EC50 [2]: 510 nM
SMILES: CC(C)Oc1cc(-c2ccc(OCCNC[C@H](O)c3ccccc3)cc2)ccc1C(=O)O

SMILES: COc1cc(-c2ccc(C[C@@H](C)NC[C@H](O)c3ccccc3)cc2)ccc1C(=O)O
EC50 [1]: 0.79 nM
EC50 [2]: 83 nM

SMILES: C[C@H](Cc1ccc(-c2ccc(C(=O)O)cc2)cc1)NC[C@H](O)c1cccnc1
AUC(0-t) at 24 h [3]: 103 ng·h/mL
half-life [4]: 1.91 h
Cmax [5]: 30.5 ng/mL
bioavailability [6]: 25.2%
EC50 [1]: 0.49 nM
half-life [7]: 6.4 h
AUC(0-t) at 24 h [8]: 207 ng·h/mL
EC50 [2]: 75 nM
Cmax [9]: 22 ng/mL
bioavailability [10]: 59.7%
EC50 [11]: > 1000 nM
clearance [12]: 4.4 mL/min/kg
clearance [13]: 34.3 mL/min/kg

SMILES: CC(C)Cc1cc(-c2ccc(OCCNC[C@H](O)c3cccc(Cl)c3)cc2)ccc1C(=O)O
EC50 [1]: 0.68 nM
EC50 [2]: 15 nM

EC50 [1]: 0.14 nM
EC50 [2]: 500 nM
SMILES: CC(C)Oc1cc(-c2ccc(CCN[C@@H](C)[C@H](O)c3ccc(O)cc3)cc2)ccc1C(=O)O

SMILES: CC(C)Oc1cc(-c2ccc(CCNC[C@H](O)c3ccc(O)c(NS(C)(=O)=O)c3)cc2)ccc1C(=O)O
EC50 [1]: 0.26 nM
EC50 [2]: 150 nM

EC50 [1]: 0.26 nM
EC50 [2]: > 1000 nM
SMILES: CC(C)Cc1cc(-c2ccc(CCNC[C@H](O)c3cccnc3)cc2)ccc1C(=O)O

SMILES: CCCOc1cc(-c2ccc(NCCNC[C@H](O)c3cccc(Cl)c3)cc2)ccc1C(=O)O
EC50 [1]: 0.21 nM
EC50 [2]: 11 nM

bioavailability [14]: 27%
CLint scaled [15]: 2.2 mL/min/kg
bioavailability [16]: 48.6%
EC50 (Canis familiaris): 1.8 nM
half-life [17]: 5.9 h
Cmax [18]: 49.1 ng/mL
AUC(0-t) at 24 h [3]: 208 ng·h/mL
AUC(0-t) at 24 h [19]: 177 ng·h/mL
half-life [4]: 1.9 h
AUC(0-t) at 24 h [20]: 90.8 ng·h/mL
bioavailability [6]: 12.4%
EC50 [1]: 0.066 nM
clearance [21]: 24.3 mL/min/kg
CLint scaled [22]: < 2 mL/min/kg
EC50 [2]: 150 nM
Cmax [9]: 21.9 ng/mL
CLint scaled [23]: < 2 mL/min/kg
clearance [24]: 7.9 mL/min/kg
fraction unbound [25]: 0.2
CLint scaled [26]: 3.8 mL/min/kg
EC50 [11]: 3200 nM
half-life [27]: 7.6 h
clearance [13]: 8.5 mL/min/kg
EC50 [28]: 3.2 nM
SMILES: CC(C)Cc1cc(-c2ccc(CCNC[C@H](O)c3ccc(N)nc3)cc2)ccc1C(=O)O
ED50 (Canis familiaris): 0.0161 mg/kg

SMILES: C[C@H](Cc1ccc(-c2ccc(C(=O)O)c(OC3CCCCC3)c2)cc1)NC[C@H](O)c1cccnc1
EC50 [1]: 0.069 nM
EC50 [2]: 24 nM

EC50 [1]: 30 nM
EC50 [2]: > 1000 nM
SMILES: CC(C)Oc1cc(-c2ccc(CCNC[C@H](O)c3cccc(NS(C)(=O)=O)c3)cc2)ccc1C(=O)O

SMILES: C[C@H](Cc1ccc(-c2ccc(C(=O)O)cc2)cc1)NC[C@H](O)c1ccccc1
EC50 [1]: 0.3 nM
EC50 [2]: 22 nM
EC50 [11]: > 1000 nM

SMILES: CC(C)Oc1cc(-c2ccc(C[C@@H](C)NC[C@H](O)c3cccc(Cl)c3)cc2)ccc1C(=O)O
EC50 [1]: 0.19 nM
EC50 [2]: 37 nM

EC50 [1]: 8.1 nM
EC50 [2]: > 1000 nM
SMILES: CC(C)Oc1cc(-c2ccc(CCNC[C@H](O)c3cccc(N)c3)cc2)ccc1C(=O)O

fraction unbound [25]: 0.06
SMILES: CCOC(=O)COc1ccc2c(c1)C[C@@H](NC[C@H](O)c1cccc(Cl)c1)CCC2

AUC(0-t) at 24 h [29]: 420 ng·h/mL
clearance [30]: 2.9 mL/min/kg
EC50 [1]: 0.21 nM
half-life [31]: 10.9 h
EC50 [2]: 120 nM
bioavailability [32]: 69.7%
Cmax [33]: 40.6 ng/mL
SMILES: CCCOc1cc(-c2ccc(OCCNC[C@H](O)c3cccc(Cl)c3)cc2)ccc1C(=O)O

EC50 [1]: 0.19 nM
EC50 [2]: 130 nM
EC50 [11]: > 10000 nM
SMILES: CC(C)Oc1cc(-c2ccc(CCNC[C@H](O)c3ccc(N)nc3)cc2)ccc1C(=O)O

EC50 [1]: 0.14 nM
EC50 [2]: 300 nM
SMILES: CC(C)Cc1cc(-c2ccc(CCN[C@@H](C)[C@H](O)c3ccccc3)cc2)ccc1C(=O)O

EC50 [1]: 0.32 nM
EC50 [2]: 110 nM
SMILES: CC(C)COc1cc(-c2ccc(OCCNC[C@H](O)c3cccc(Cl)c3)cc2)ccc1C(=O)O

SMILES: CC(C)Oc1cc(-c2ccc(C[C@@H](C)NC[C@H](O)c3cccnc3)cc2)ccc1C(=O)O
EC50 [1]: 0.099 nM
EC50 [2]: 80 nM
EC50 [11]: > 1000 nM

EC50 [1]: 0.035 nM
EC50 [2]: 39 nM
EC50 [11]: 1100 nM
SMILES: Nc1ccc([C@@H](O)CNCCc2ccc(-c3ccc(C(=O)O)c(OC4CCCCC4)c3)cc2)cn1
